From patent publication US20200078463A1, “COMPOSITION HAVING IMPROVED WATER SOLUBILITY AND BIOAVAILABILITY” (SAMYANG BIOPHARMACEUTICALS CORPORATION, priority 2017, published 2020)
Counter-ions that a name gives are not always drawn.

Assay: Additive screening: dissolved sorafenib in pH 1.2 buffer by HPLC
Assay type: physicochemical
Settings: 100 mg sorafenib tosylate (crystalline form III) + 10 mg additive in 1 ml pH 1.2 buffer, shaken at 1,100 rpm for 24 hours, filtered 0.45 μm
Description: In order to test the content of drug included in the formulation, it was analyzed by HPLC using the following test method.
(1) Buffer preparation: After dissolving 0.77 g ammonium acetate in 1000 ml of water, the pH of the solution was adjusted to 6.8±0.05 using ammonia solutions.
(2) The solution of (1) and acetonitrile were mixed at 40:60 (v/v), and the solution filtered with a filter paper having a pore size of 0.45 μm and degassed was used as a mobile phase.
The buffer solution (1) and acetonitrile were mixed at 30:70 (v/v) to obtain a dilution solution.
1 ml of the standard solution (300 μg/ml) was precisely taken, and 2 ml of the diluted solution was added to prepare a standard solution (100 μg/ml). 1 ml of the standard solution (300 μg/ml) was precisely taken, and 4 ml of the diluted solution was added to prepare a standard solution (60 μg/ml). 1 ml of the standard solution (100 μg/ml) was precisely taken, and 4 ml of the diluted solution was added to prepare a standard solution (20 μg/ml). A calibration curve was drawn using the four standard solutions and used to calculate the content of the test solution.
Detector: ultraviolet absorbance photometer (wavelength 265 nm)
Column: Eclipse XDB-C18, 4.6 mm×150 mm, 5 μm or equivalent column
Column temperature: 27° C.
It was shaken at 1,100 rpm for 24 hours. […]

SMILES: CNC(=O)c1cc(Oc2ccc(NC(=O)Nc3ccc(Cl)c(C(F)(F)F)c3)cc2)ccn1 [No polymer, sorafenib tosylate]
- Concentration of dissolved sorafenib: 100 ng/mL
